Laboratory results published in patent US9328138B2 (priority 2011, dated 2016).

Experiments:
[1] = biological target: T1, HCV genotype 1b (BK) NS3 modified enzyme with a R155K mutation (Hepatitis C virus genotype 1b, UniProt P26663, R1181K); test: HCV NS3 protease time-resolved fluorescence (TRF) assay, genotype 1b R155K; assay type: biochemical; details: Ki 1b R155K
T1 construct: HCV genotype 1b (BK) NS3 modified enzyme
In short: (§1)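 Pre-incubation of NS3/NS4A protease with inhibitor for 10 min in pH 7.5 HEPES buffer with 10 mM DTT; 25 nM TRF peptide substrate, hydrolysis 6 h at room temperature. Fluorescence read at ex 340/em 615 nm with 400 μs delay, enzyme level set for S/B 5-20; IC50 by four-parameter fit.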

[2] = biological target: HCV NS3 protease genotype 3a (3A-1) (Hepatitis C virus genotype 3a, UniProt Q81258); test: HCV NS3 protease time-resolved fluorescence (TRF) assay, genotype 3a; assay type: biochemical; details: Ki 3a
In short: as §1

[3] = genotype 1b (BK) NS3 R155K, single value
[4] = first of two values printed in the cell (not explained)
[5] = second of two values printed in the cell (not explained)

C=C[C@@H]1C[C@]1(NC(=O)[C@@H]1C[C@@H]2CN1C(=O)[C@H](C1CCCC1)NC(=O)O[C@@H]1CCC[C@H]1CC/C=C/Cc1c(nc3ccccc3c1OCCCN1CCCC1=O)O2)C(=O)NS(=O)(=O)C1CC1 [Example 78, (3aR,7S,10S,12R,21E,24aS)-7-cyclo pentyl-N-{(1R,2S)-1-[(cyclopropylsulfonyl)carbamoyl]-2-ethenylcyclopropyl}-5,8-dioxo-19-[3-(2-oxopyrrolidin-1-yl)propoxy]-1,2,3,3a,5,6,7,8,11,12,20,23,24,24a-tetradecahydro-10H-9,12-methano-cyclopenta[18,19][1,10,3,6]dioxa diazacyclonona decino[11,12-b] quinoline-10-carboxamide] was tested, and the Ki [1, 3] was 0.08 nM and the Ki [2] was 0.54 nM.
C=C[C@@H]1C[C@]1(NC(=O)[C@@H]1C[C@@H]2CN1C(=O)[C@H](C1CCCCC1)NC(=O)O[C@@H]1C[C@H]1CCCCCc1c(nc3ccccc3c1OC1CCOCC1)O2)C(=O)NS(=O)(=O)C1(C)CC1 [Example 253, (1aR,5S,8S,10R,22aR)-5-cyclohexyl-N-[(1R,2S)-2-ethenyl-1-{[(1-methylcyclopropyl)sulfonyl]carbamoyl}cyclopropyl]-3,6-dioxo-17-(tetrahydro-2H-pyran-4-yloxy)-1,1a,3,4,5,6,9,10,18,19,20,21,22,22a-tetradecahydro-8H-7,10-methanocyclopropa[18,19][1,10,3,6]dioxadiazacyclononadecino[11,12-b]quinoline-8-carboxamide] was tested, and the Ki [1, 4] was 0.026 nM, the Ki [1, 5] was 0.265 nM and the Ki [2] was 11 nM.
In the case of C=C[C@@H]1C[C@]1(NC(=O)[C@@H]1C[C@@H]2CN1C(=O)[C@H](C(C)(C)C)NC(=O)O[C@@H]1C[C@H]1CCCCCc1c(nc3ccccc3c1OC[C@@H]1CCN(C(=O)OC(C)(C)C)C1)O2)C(=O)NS(=O)(=O)C1(C)CC1 [Example 138, tert-butyl (3R)-3-({[(1aR,5S,8S,10R, 22aR)-5-tert-butyl-8-{[(1R,2S)-2-ethenyl-1-{[(1-methylcyclopropyl)sulfonyl]carbamoyl}cyclopropyl]carbamoyl}-3,6-dioxo-1,1a,3,4,5,6,9,10,18,19,20, 21,22,22a-tetradeca hydro-8H-7,10-methanocyclopropa [18,19][1,10,3,6]dioxadiazacyclononadecino[11,12-b]quinolin-17-yl]oxy}methyl)pyrrolidine-1-carboxylate], the Ki [1, 3] is reported as 0.63 nM and the Ki [2] is reported as 7 nM.
For C=C[C@@H]1C[C@]1(NC(=O)[C@@H]1C[C@@H]2CN1C(=O)[C@H](C1(C)CCCCC1)NC(=O)O[C@@H]1C[C@H]1CCCCCc1c(nc3ccccc3c1OCCCN1CCCOCC1)O2)C(=O)NS(=O)(=O)C1(C)CC1 [Example 270, (1aR,5S,8S,10R,22aR)—N-[(1R,2S)-2-ethenyl-1-{[(1-methylcyclopropyl)sulfonyl]carbamoyl}cyclopropyl]-5-(1-methylcyclohexyl)-17-[3-(1,4-oxazepan-4-yl)propoxy]-3,6-dioxo-1,1a,3,4,5,6,9,10,18,19,20,21,22,22a-tetradecahydro-8H-7,10-methanocyclopropa[18,19][1,10,3,6]dioxadiazacyclononadecino[11,12-b]quinoline-8-carboxamide], the Ki [1, 4] was 0.021 nM, the Ki [1, 5] was 0.18 nM and the Ki [2] was 1.4 nM.
C=C[C@@H]1C[C@]1(NC(=O)[C@@H]1C[C@@H]2CN1C(=O)[C@H](C(C)(C)C)NC(=O)O[C@@H]1C[C@H]1CCCCCc1c(nc3ccccc3c1OCCNC1CC1)O2)C(=O)NS(=O)(=O)C1(C)CC1 [Example 178, (1aR,5S,8S,10R,22aR)-5-tert-butyl-17-[2-(cyclopropylamino)ethoxy]-N-[(1R,2S)-2-ethenyl-1-{[(1-methylcyclopropyl)sulfonyl]carbamoyl}cyclopropyl]-3,6-dioxo-1,1a,3,4,5,6,9,10, 18,19,20,21,22,22a-tetradeca hydro-8H-7,10-methanocyclopropa[18,19][1,10,3,6] dioxadiazacyclononadecino[11,12-b] quinoline-8-carboxamide] was tested, and the Ki [1, 3] was 0.14 nM and the Ki [2] was 3.6 nM.
C=C[C@@H]1C[C@]1(NC(=O)[C@@H]1C[C@@H]2CN1C(=O)[C@H](C(C)(C)C)NC(=O)O[C@@H]1C[C@H]1CCCCCc1c(nc3ccccc3c1OCCCN1CCN(C)CC1)O2)C(=O)NS(=O)(=O)C1(C)CC1 [Example 131, (1aR,5S,8S,10R,22aR)-5-tert-butyl-N-[(1R,2S)-2-ethenyl-1-{[(1-methylcyclopropyl)sulfonyl]carbamoyl}cyclopropyl]-17-[3-(4-methylpiperazin-1-yl)propoxy]-3,6-dioxo-1,1a,3,4,5,6,9,10,18,19,20,21,22,22a-tetradecahydro-8H-7,10-methanocyclopropa[8,19][1,10,3,6]dioxadiazacyclononadecino[11,12-b]quinoline-8-carboxamide] showed a Ki [1, 3] of 0.11 nM and a Ki [2] of 1.3 nM.
Compound C=C[C@@H]1C[C@]1(NC(=O)[C@@H]1C[C@@H]2CN1C(=O)[C@H](C1CCCC1)NC(=O)O[C@@H]1CCC[C@H]1CC/C=C/Cc1c(nc3ccccc3c1OCC(=O)N1CCCC1)O2)C(=O)NS(=O)(=O)C1CC1 [Example 67, (3aR,7S,10S,12R,21E,24aS)-7-cyclopentyl-N-{(1R,2S)-1-[(cyclopropylsulfonyl)carbamoyl]-2-ethenylcyclopropyl}-5,8-dioxo-19-[2-oxo-2-(pyrrolidin-1-yl)ethoxy]-1,2,3,3a,5,6,7,8,11,12,20,23,24,24a-tetradecahydro-10H-9,12-methanocyclopenta[18,19][1,10,3,6]dioxadiazacyclononadecino[11,12-b]quinoline-10-carboxamide] has a Ki [1, 3] of 0.081 nM and a Ki [2] of 6.6 nM.
Compound C=C[C@@H]1C[C@]1(NC(=O)[C@@H]1C[C@@H]2CN1C(=O)[C@H](C1CCCCC1)NC(=O)O[C@@H]1C[C@H]1CCCCCc1c(nc3c(OC)cccc3c1OCCN1CCCCC1)O2)C(=O)NS(=O)(=O)C1(C)CC1 [Example 216, (1aR,5S,8S,10R,22aR)-5-cyclohexyl-N-[(1R,2S)-2-ethenyl-1-{[(1-methylcyclopropyl)sulfonyl]carbamoyl}cyclopropyl]-13-methoxy-3,6-dioxo-17-[2-(piperidin-1-yl)ethoxy]-1,1a,3,4,5,6,9,10,18,19,20,21,22,22a-tetradecahydro-8H-7,10-methanocyclopropa[18,19][1,10,3,6] dioxadiazacyclononadecino[11,12-b]quinoline-8-carboxamide] has a Ki [1, 3] of 0.24 nM and a Ki [2] of 6.4 nM.
For CC1(S(=O)(=O)NC(=O)[C@@]23C[C@H]2/C=C\CCCCC[C@@H]2NC(=O)O[C@@H]4C[C@H]4CCCCCc4c(nc5ccccc5c4OCCN4CCOCC4)O[C@@H]4C[C@@H](C(=O)N3)N(C4)C2=O)CC1 [Example 301, (1aR,5S,11Z,12aS,13aR,16S,19R,31aR)—N-[(1-methylcyclopropyl)sulfonyl]-26-[2-(morpholin-4-yl)ethoxy]-3,15,33-trioxo-1,1a,3,4,5,6,7,8,9,10,12a,13,15,16,18,19,27,28,29,30,31,31a-docosahydro-5,17:16,19-dimethanodicyclopropa[12,13:28,29][1,20,3,14,17]dioxatriazacyclononacosino[21,22-b]quinoline-13a(14H)-carboxamide], the Ki [1, 3] was 0.35 nM and the Ki [2] was 5.9 nM.
